In the experiment the test system is O. volvulus third-stage larvae (L3). Description: O. volvulus L3 to L4 molting assay. Type of experiment: cell-based, Onchocerca volvulus. Particulars: Day 6, read-out: O. volvulus L3 Inhibition of Molting Day 6 IC50. Here is the method: O. volvulus, like other nematodes, undergo molts during their larval stages as they develop into the adult form. […] The molting assay tests the potency of compounds to prevent the L3 from molting to the L4 stage in vitro. […] Briefly, 5–10 Ov L3 collected from infected Simulium blackflies and frozen in liquid nitrogen were thawed and plated in 96-well plates seeded with 0.2 × 10^6 normal human peripheral blood mononuclear cells (PBMCs) in 100 µL complete medium containing 20% heat inactivated FBS and treated with compounds at 10, 3, 1, 0.3, 0.1 and 0.03 μM. L3 exposed to 0.5% DMSO or complete media only were run as negative controls. Larvae were incubated at 37 °C with 5% CO2, and molting was determined by examining the wells for highly motile L4 larvae and empty L3 casts after 6 days in culture.

Structures are written as SMILES. pIC50: −log10 of the molar value. Like-named read-outs stand apart in the source and are kept apart here.

What is called pIC50 is the negative decadic logarithm of the IC50, by convention in mol/L. On to `Cc1ccc2c(ccc(/C=C/c3c(C)nn(-c4ccccc4)c3C)[n+]2C)c1.[I-]` [Analog 06, 2-[(E)-2-(3,5-dimethyl-1-phenyl-1H-pyrazol-4-yl)ethenyl]-1,6-dimethylquinolin-1-ium iodide], for which the pIC50 was 6.34. For the same compound, the pIC50 (Onchocerca volvulus, 144 h) is 6.34.
